Test results reported in ChEMBL document CHEMBL3352218, “Structural basis for inhibition of mycobacterial and human adenosine kinase by 7-substituted 7-(Het)aryl-7-deazaadenine ribonucleosides” (J Med Chem, 2014).

Tested on: Mycobacterium tuberculosis
Assay: microbe, parasite or virus in culture
Details: variant bovis BCG, 504 h

`Nc1ncnc2c1c(-c1ccccc1)cn2[C@@H]1O[C@H](CO)[C@@H](O)[C@H]1O` showed an IC50 of 1340 nM.

`COc1ccc(-c2cn([C@@H]3O[C@H](CO)[C@@H](O)[C@H]3O)c3ncnc(N)c23)cc1` showed an IC50 of 2080 nM.

`CSc1ccc(-c2cn([C@@H]3O[C@H](CO)[C@@H](O)[C@H]3O)c3ncnc(N)c23)cc1` was tested, and the IC50 was 360 nM.

With `Nc1ncnc2c1c(-c1cccc3ccccc13)cn2[C@@H]1O[C@H](CO)[C@@H](O)[C@H]1O` the IC50 was 1870 nM.

For `Nc1ncnc2c1c(-c1ccc3ccccc3c1)cn2[C@@H]1O[C@H](CO)[C@@H](O)[C@H]1O`, the IC50 was 390 nM.

Work on `Nc1ncnc2c1c(-c1ccoc1)cn2[C@@H]1O[C@H](CO)[C@@H](O)[C@H]1O` yielded an IC50 of 8310 nM.

`Nc1ncnc2c1c(-c1ccsc1)cn2[C@@H]1O[C@H](CO)[C@@H](O)[C@H]1O` showed an IC50 of 3930 nM.

`Nc1ncnc2c1c(-c1cc3ccccc3o1)cn2[C@@H]1O[C@H](CO)[C@@H](O)[C@H]1O` was tested, and the IC50 was 2270 nM.

With `Nc1ncnc2c1c(-c1ccc[nH]1)cn2[C@@H]1O[C@H](CO)[C@@H](O)[C@H]1O` the IC50 was 7270 nM.

Work on `Nc1ncnc2c1c(-c1cc[nH]c1)cn2[C@@H]1O[C@H](CO)[C@@H](O)[C@H]1O` yielded an IC50 of 1120 nM.

`Nc1ncnc2c1c(-c1cn[nH]c1)cn2[C@@H]1O[C@H](CO)[C@@H](O)[C@H]1O` showed an IC50 of 3080 nM.

Work on `Nc1ncnc2c1c(-c1cc[nH]n1)cn2[C@@H]1O[C@H](CO)[C@@H](O)[C@H]1O` yielded an IC50 of 48000 nM.

`C#Cc1cn([C@@H]2O[C@H](CO)[C@@H](O)[C@H]2O)c2ncnc(N)c12` showed an IC50 of 130 nM.

For `Nc1ncnc2c1c(-c1c[nH]nn1)cn2[C@@H]1O[C@H](CO)[C@@H](O)[C@H]1O`, the IC50 was 69000 nM.

`Nc1ncnc2c1c(-c1nccs1)cn2[C@@H]1O[C@H](CO)[C@@H](O)[C@H]1O` showed an IC50 of 2510 nM.

In the case of `Nc1ncnc2c1c(-c1c[nH]cn1)cn2[C@@H]1O[C@H](CO)[C@@H](O)[C@H]1O`, the IC50 is reported as over 100000 nM.

Work on `Nc1ncnc2c1c(-c1ncc[nH]1)cn2[C@@H]1O[C@H](CO)[C@@H](O)[C@H]1O` yielded an IC50 of over 100000 nM.

`Cc1ccc(-c2cn([C@@H]3O[C@H](CO)[C@@H](O)[C@H]3O)c3ncnc(N)c23)cc1C` was tested, and the IC50 was 1130 nM.

With `CC(C)c1cccc(-c2cn([C@@H]3O[C@H](CO)[C@@H](O)[C@H]3O)c3ncnc(N)c23)c1` the IC50 was 6750 nM.

`CC(C)c1ccc(-c2cn([C@@H]3O[C@H](CO)[C@@H](O)[C@H]3O)c3ncnc(N)c23)cc1` gave an IC50 of 5290 nM.

`CC(C)(C)c1ccc(-c2cn([C@@H]3O[C@H](CO)[C@@H](O)[C@H]3O)c3ncnc(N)c23)cc1` was tested, and the IC50 was 4540 nM.

With `Nc1ncnc2c1c(-c1ccc(C(F)(F)F)cc1)cn2[C@@H]1O[C@H](CO)[C@@H](O)[C@H]1O` the IC50 was 1160 nM.

Molecule `CC(C)Oc1ccc(-c2cn([C@@H]3O[C@H](CO)[C@@H](O)[C@H]3O)c3ncnc(N)c23)cc1` has an IC50 of 3070 nM.

Work on `Nc1ncnc2c1c(-c1ccc3c(c1)OCO3)cn2[C@@H]1O[C@H](CO)[C@@H](O)[C@H]1O` yielded an IC50 of 1380 nM.

Work on `COc1cc(-c2cn([C@@H]3O[C@H](CO)[C@@H](O)[C@H]3O)c3ncnc(N)c23)cc(OC)c1OC` yielded an IC50 of 7050 nM.

Molecule `Nc1ncnc2c1c(-c1ccc3c4c(cccc14)CC3)cn2[C@@H]1O[C@H](CO)[C@@H](O)[C@H]1O` has an IC50 of 1740 nM.

`Nc1ncnc2c1c(-c1cc3ccccc3c3ccccc13)cn2[C@@H]1O[C@H](CO)[C@@H](O)[C@H]1O` was tested, and the IC50 was 1900 nM.

Molecule `Nc1ncnc2c1c(-c1cccc3c1oc1ccccc13)cn2[C@@H]1O[C@H](CO)[C@@H](O)[C@H]1O` has an IC50 of 190 nM.

`Nc1ncnc2c1c(-c1cccc3c1Oc1ccccc1S3)cn2[C@@H]1O[C@H](CO)[C@@H](O)[C@H]1O` showed an IC50 of 4530 nM.

For `Nc1ncnc2c1c(-c1cccc3c1Sc1ccccc1S3)cn2[C@@H]1O[C@H](CO)[C@@H](O)[C@H]1O`, the IC50 was 44300 nM.

Work on `Nc1ncnc2c1c(/C=C/c1ccccc1)cn2[C@@H]1O[C@H](CO)[C@@H](O)[C@H]1O` yielded an IC50 of 1300 nM.

Molecule `Nc1ncnc2c1c(-c1ccc(-c3ccccc3)cc1)cn2[C@@H]1O[C@H](CO)[C@@H](O)[C@H]1O` has an IC50 of 1680 nM.

Work on `Nc1ncnc2c1c(-c1ccc(-c3ccc4ccccc4c3)cc1)cn2[C@@H]1O[C@H](CO)[C@@H](O)[C@H]1O` yielded an IC50 of 74400 nM.

With `Nc1ncnc2c1c(-c1ccc(COc3cccc4ccccc34)cc1)cn2[C@@H]1O[C@H](CO)[C@@H](O)[C@H]1O` the IC50 was 6390 nM.
